The source of these data is EP0361645B1, “Organic hydrazine derivatives for pharmaceutical use” (ROHM AND HAAS COMPANY, priority 1988, dated 1990).

One data set has as its system helminths. As to conditions: stated as known; cited from earlier work.
A short description of data set [1]: Hemolymph titers of 14C-Example No. 3 in L5 hornworms after feeding. It is filed as in vivo, M. sexta.
Data set [2] relates to ligated M. sexta abdomens (L4D1). The experiment in a line: Onset of molting in ligated L4D1 M. sexta abdomens (injection). It counts as in vivo. As to conditions: injected into L4D1 abdomens. As for the experimental part: (§1) L4D1 means fourth instar, first day after molting. L4 animals 36 hours after ecdysis were ligated, decapitated and next day injected with varying doses of compound in 1 - 2 ul DMSO. They were scored as follows: 0 = normal L4 abdomens with no L5 crochets or spiracle apolysis; 1 = exposed dorsal vessel (response to moderate levels of molting hormone in the presence of low JH levels); 2 = L5 crochets formed but no spiracle apolysis; 3 = L5 crochets formed and mild spiracle apolysis; 4 = strong molting response, both L5 crochets and spiracle cuticle synthesized. These methods are an adaptation of the method of J. W. Truman, L. M. Riddiford, L. Safranek, 39 Dev. Biol 247 (1974). Injection and scoring of L5D3 abdomens (weighing 6.5 - 7.5 g) are also adaptations of previous methods in H. F. Nijhout, 22 J. Insect Physiol. 453 (1976). […] Animals were held over moistened filter paper at 25 ° C and were scored after three days. […] For both L4 and L5 abdomens, 50% effective doses were determined by plotting the mean score for all individuals vs. dose, then determining the dose which gives a score of 2.0 and 1.5 respectively. Intact L5D0 hornworms were either allowed to feed on treated commercial black cutworm diet or injected into a proleg and scored after 48 hours. The 50% effective dose was calculated by plotting percentage of the population bearing a prematurely apolysed head capsule vs. dose. […]

The subject of a further data set is antiecdysone antiserum. Briefly: Binding by antiecdysone antiserum (radioimmunoassay). On the procedure:
The invention will now be further described by way of exemplification and by reference to the drawings in which; • Figure 1. Both 20-hydroxyecdysone and Example No. 3 induce process elaboration (A) and inhibition of cell proliferation (B) in Kr cells in a dose-dependent manner. Initial cell density was 2 X 10^6 cells/ml; after incubation of 1 ml aliquots of the cells with the compound for 48 hours the cells were triturated gently and the percentage of cells responding (with processes longer than approximately 17 um, see Cherbas et al. 189 Wilhelm Roux's Arch. 1 (1980)) and total cell density was determined by hemocytom- eter counting, relative to ethanol (1 ul)-treated controls. Determinations were in triplicate for each dose. […] Induction of acetylcholinesterase by varying concentrations of 20-hydroxyecdysone and Example No. 3. Kr cells at an initial density of 3 X 10^6 cells/ml (10 ml per sample) were incubated with the agonist for three days. After harvesting, by centrifugation at 3000 X g, the cell pellets were washed with Robb's Drosophila saline (18, 2 X 5 ml) at 4 ° C, then lysed by sonication in 1 ml of phosphate buffer (pH 7.4, I = 0.1 M) containing 0.5 M NaCI, 0.25 M EDTA and 0.5% TRITON? X-100. See Cherbas, 197 Science 275 (1977). Triton is a registered trademark of Rohm and Haas Company for a alkylaryl polyoxyethylene glycol surfactant. After centrifugation at 16,000 X g, the supernatants were assayed for acetylcholinesterase activity by an adaptation of the method of Ellman et al., 7 Biochem. Pharmacol. 88 (1961), by subtracting out any 412 nm absorbance observed in incubations in the presence of 2 X 10-5 eserine sulfate. […] Absorbance at 412 nm was then measured. Protein concentration in extracts was measured by the Biorad method. […] Ecdysteroid titers were measured by a radioimmunoassay adapted from Warren et al., 40 Experientia 393 (1984) with Protein A-Staph. aureus suspension (Sigma) used as the reagent to separate bound from free ligand. […]

Another data set has as its system M. sexta. Briefly: Hemolymph ecdysteroid titers (radioimmunoassay) and weight gain of fourth instar M. sexta fed compound in artificial diet. It counts as in vivo, Manduca sexta. As for the experimental part:
The invention will now be further described by way of exemplification and by reference to the drawings in which; • Figure 1. Both 20-hydroxyecdysone and Example No. 3 induce process elaboration (A) and inhibition of cell proliferation (B) in Kr cells in a dose-dependent manner. Initial cell density was 2 X 10^6 cells/ml; after incubation of 1 ml aliquots of the cells with the compound for 48 hours the cells were triturated gently and the percentage of cells responding (with processes longer than approximately 17 um, see Cherbas et al. 189 Wilhelm Roux's Arch. 1 (1980)) and total cell density was determined by hemocytom- eter counting, relative to ethanol (1 ul)-treated controls. Determinations were in triplicate for each dose. […] Induction of acetylcholinesterase by varying concentrations of 20-hydroxyecdysone and Example No. 3. Kr cells at an initial density of 3 X 10^6 cells/ml (10 ml per sample) were incubated with the agonist for three days. After harvesting, by centrifugation at 3000 X g, the cell pellets were washed with Robb's Drosophila saline (18, 2 X 5 ml) at 4 ° C, then lysed by sonication in 1 ml of phosphate buffer (pH 7.4, I = 0.1 M) containing 0.5 M NaCI, 0.25 M EDTA and 0.5% TRITON? X-100. See Cherbas, 197 Science 275 (1977). Triton is a registered trademark of Rohm and Haas Company for a alkylaryl polyoxyethylene glycol surfactant. After centrifugation at 16,000 X g, the supernatants were assayed for acetylcholinesterase activity by an adaptation of the method of Ellman et al., 7 Biochem. Pharmacol. 88 (1961), by subtracting out any 412 nm absorbance observed in incubations in the presence of 2 X 10-5 eserine sulfate. Thus reaction mixtures contained 50 ul of enzyme extract, 20 ul eserine (blank tubes only) and 1.0 ml of 0.5 mM acetylthiocholine, 0.3 mM dithiobisnitrobenzoic acid in phosphate buffer (pH 7.4, I = 0.1 M). Incubations were at 25 ° C for two hours; reactions in active tubes were terminated by addition of eserine. Absorbance at 412 nm was then measured. Protein concentration in extracts was measured by the Biorad method. […] Scatchard plot of ^3H-ponasterone A binding to Kr cell cytosolic receptor extracts in the presence of differing concentrations of Example No. 3. Cytosolic extract preparation and ecdysteroid receptor assays were essentially as described in Sage, 111 Meth. in Enzymol. 458 (1985). Example No. 3 was added in 1 ul DMSO to 50 ul of radioligand in 10 mM Tris buffer (pH 7.2) and 50 ul of undiluted cytosol extract. After incubation overnight at 0.5 ° C, bound label was separated from free by addition of 300 ul 1% HCI-washed charcoal (Sigma) and 0.1% Dextran T70 (Pharmacia) in Tris buffer, centrifugation (13,000 X g, 3 min, 4 ° C) and liquid scintillation counting of a 300 ul aliquot of the supernatant in 15 ml Hydrofluor (National Diagnostics). Points are means of duplicate determinations. […] Relative ability of 20 hydroxyecdysone and Example No. 3 to displace ^3H-ponasterone A from cytosolic receptor extracts. Conditions were as in Figure 3 except that only 0.5 nM ponasterone A was used. • Points are means of duplicate determinations. For 20-hydroxyecdysone EC50 = 0.1 uM while for Example No. 3 EC50 = 3.0 uM. Control binding = 10 femtomoles ^3H-ponasterone A bound per mg cytosol protein. • Figure 4. […] Ecdysteroid titers were measured by a radioimmunoassay adapted from Warren et al., 40 Experientia 393 (1984) with Protein A-Staph. aureus suspension (Sigma) used as the reagent to separate bound from free ligand. […]

Data set [3] deals with ligated M. sexta abdomens (L5D3). Briefly: Onset of pupal development in ligated L5D3 M. sexta abdomens (injection). It counts as in vivo. As to conditions: injected into L5D3 abdomens, events related to pupal formation. As for the experimental part:
as §1

Setting [4] is: L4 M. sexta, 10 ppm in artificial diet.

`CC(C)(O)CC[C@@H](O)[C@](C)(O)[C@H]1CC[C@@]2(O)C3=CC(=O)[C@@H]4C[C@@H](O)[C@@H](O)C[C@]4(C)[C@H]3CC[C@]12C` [20-hydroxyecdysone, reference compound]: the control of helminths result in the data set with helminths is “controls helminths”.
For `CC(C)(C)N(NC(=O)c1ccccc1)C(=O)c1ccccc1` [Example No. 3, N'-t-butyl-N,N'-dibenzoylhydrazine], the “peak hemolymph concentration relative to concentrations required for a 50% response in Kr cell process elaboration and ^3H-ponasterone A displacement” value in data set [1] (10 ug/g oral dose) was in the range of 3 to 5 fold. Moreover, the concentration at 36 h in data set [1] (tobacco hornworm, hemolymph, po, 10 ug/g in diet, for at least 36 hours thereafter, read-out: residual hemolymph level) is roughly 3 µM. In addition, the Cmax at 6 h in data set [1] (tobacco hornworm, hemolymph, po, L5D0 larvae, 10 ug/g in diet, at six hours after the initiation of feeding, read-out: peak hemolymph concentration) amounted to 16 µM. The “fold more potent than 20-hydroxyecdysone” value in data set [2] was 30 fold. For the same compound, the “binding by antiecdysone antiserum” value in the data set with antiecdysone antiserum (1 X 10^-4 M) is reported as “not significantly bound”. For the same compound, in the data set on antiecdysone antiserum (antiecdysone antiserum), the “fold lower binding affinity than 20-hydroxyecdysone” value was greater than 3125 fold. Also, in the data set on M. sexta (L4D0 animals, within four hours after the initiation of feeding), the “ecdysone titers relative to control levels” value is listed as “significantly depressed”. In addition, in the data set with M. sexta (L4 M. sexta treated larvae), the “outcome of the molt” value is recorded as “eventually died without completing the molt”. In addition, in the data set with M. sexta (setting [4]), the “feeding and weight gain” value was “further feeding and weight gain ceases”; the immunoreactive ecdysone titers result is “without any elevation of ecdysone titers”; the “time to head capsule slippage” value was found to be 24 h. Further, the “times as potent as 20-hydroxyecdysone” value in data set [3] worked out at 30 times.
